Data set [1] can be described thus: Reduced coenzyme Q10 ratio in plasma after oral administration, 54-week-old SD rats (Example 1). In kind it is in vivo. An excerpt:
(§1) The ratio of the reduced form to the total coenzyme Q10 is generally determined by a method comprising quantifying oxidized coenzyme Q10 and reduced coenzyme Q10 in a sample by high performance liquid chromatography (HPLC) using an UV detector and calculating the ratio from the volume ratio obtained, or a method comprising using an HPLC system incorporated with an electrochemical detector for calculating the ratio of oxidized coenzyme Q10 and reduced coenzyme Q10 from the peak area. The HPLC system incorporated with an electrochemical detector makes it possible to specifically determine oxidation-reduction substances and has high sensitivity, and thus is highly useful for determining trace amount of reduced coenzyme Q10 in the living body or samples. In the present invention, all the reduced coenzyme Q10 ratios are determined by the HPLC system incorporated with an electrochemical detector.
(§2) In these Examples, the ratio of reduced coenzyme Q10 to the total coenzyme Q10 was determined using the HPLC system incorporated with an electrochemical detector (product of Shiseido Co., Ltd.) and a reduction column (product of Shiseido Co., Ltd.).
(§3) 10 SD rats (54-week-old, males) were divided into 2 groups each consisted of 5 rats so that each group had the same average body weight value. To one group, a solution of reduced coenzyme Q10 in soybean oil (containing about 1% of oxidized coenzyme Q10) was orally administered, and to the other group, a solution of oxidized coenzyme Q10 in soybean oil was orally administered, each at the dose of 100 mg/kg body weight in coenzyme Q10 equivalent. Then, the reduced coenzyme Q10 ratio in plasma was determined with time lapses. Blood was collected after 1, 2, 4 and 8 hours of oral administration, and centrifuged to obtain plasma. The concentration of reduced coenzyme Q10 and oxidized coenzyme Q10 in the obtained plasma was quantified using HPLC in order to determine the ratio of the reduced form.

The nature of data set [2]: Reduced coenzyme Q10 ratio in plasma after oral administration, 62-week-old SD rats (Example 2). In kind it is in vivo.
Excerpt: as §1, §2
as §3, with “SD rats (62-week-old, males) were” for “SD rats (54-week-old, males) were”, “reduced coenzyme Q10in soybean oil” for “reduced coenzyme Q10 in soybean oil”

Data set [3] in a line: Reduced coenzyme Q10 ratio in plasma of healthy aged people fed soft capsules (Example 3). In kind it is in vivo, human. The conditions noted are these: healthy aged people 64 to 77 years old, two soft capsules (100 mg of coenzyme Q10), since 2 hours after administration.
Excerpt: as §1, with “The HPLC system incorporated with an electrochemical detector makes it possible to specifically determine oxidation-reduction substances and has high sensitivity, and thus is highly useful for determining trace amount of reduced coenzyme Q10 in the living body or samples.” left out
as §2
Two soft capsules obtained in Preparation Example 5 and Comparative Preparation Example 1 (containing 100 mg of coenzyme Q10) were fed to two groups of healthy aged people (20 male and female individuals in each group, age: 64 to 77 years old), and the effect on the reduced coenzyme Q10 ratio in plasma was evaluated.

Data set [4] can be described thus: Reduced coenzyme Q10 ratio in plasma after oral administration, 5-week-old SD rats (Reference Example 1). In kind it is in vivo.
Excerpt: as §1, with “The HPLC system incorporated with an electrochemical detector makes it possible to specifically determine oxidation-reduction substances and has high sensitivity, and thus is highly useful for determining trace amount of reduced coenzyme Q10 in the living body or samples.” left out
as §2
10 SD rats (5-week-old, males) were divided into 2 groups each consisted of 5 rats so that each group had the same average body weight value. […] Then, the reduced coenzyme Q10 ratio in plasma was determined with time lapses. […] The concentration of reduced coenzyme Q10 and oxidized coenzyme Q10 in the obtained plasma was quantified using HPLC in order to determine the reduced coenzyme Q10 ratio.

The conditions of data set [5]: healthy person, intake of oxidized coenzyme Q10; cited from earlier work.
Setting [6] is: male, SD, rat, in vivo, po, 100 mg/kg, 1 h.
[7] abbreviates: male, SD, rat, in vivo, po, 100 mg/kg, 8 h.

SMILES strings stand for the structures.

`COc1c(O)c(C)c(C/C=C(\C)CC/C=C(\C)CC/C=C(\C)CC/C=C(\C)CC/C=C(\C)CC/C=C(\C)CC/C=C(\C)CC/C=C(\C)CC/C=C(\C)CCC=C(C)C)c(O)c1OC` [reduced coenzyme Q10]: the “ratio of the reduced form of coenzyme Q10 in plasma” value is on record as “around 90%” in data set [1] (54-week-old male SD rats, 100 mg/kg oral in soybean oil, over 1-8 hours) and “around 90%” in data set [2] (62-week-old male SD rats, 100 mg/kg oral in soybean oil, over 1-8 hours). The “ratio of reduced coenzyme Q10 to the total coenzyme Q10 in plasma, time course” value in data set [3] was “increased with the lapse of time”. The “difference in the reduced coenzyme Q10 ratio in plasma between administration of reduced and oxidized coenzyme Q10” value in data set [4] (5-week-old male SD rats, 100 mg/kg oral in soybean oil, after 2 hours or later of administration) was “almost no difference”.
Consider `COC1=C(OC)C(=O)C(C/C=C(\C)CCC=C(C)CCC=C(C)CCC=C(C)CCC=C(C)CCC=C(C)CCC=C(C)CCC=C(C)CCC=C(C)CCC=C(C)C)=C(C)C1=O` [oxidized coenzyme Q10], for which the “ratio of the reduced form of coenzyme Q10 in plasma” value was “about 76%” in data set [1] (setting [6]), “about 87%” in data set [1] (setting [7]), “about 74%” in data set [2] (setting [6]) and “about 78%” in data set [2] (setting [7]). Moreover, the “amount of reduced coenzyme Q10 in plasma” value in data set [5] was “increased”. The “ratio of reduced coenzyme Q10 to oxidized coenzyme Q10 in plasma” value in data set [5] is recorded as “unchanged”. The “difference in the reduced coenzyme Q10 ratio in plasma between administration of reduced and oxidized coenzyme Q10” value in data set [4] (rat, in vivo, po, 100 mg/kg) is recorded as “almost no difference”.
